Where no end group is shown, it is not given here. The star is where a group is joined. FITC = O=C1OC2(c3ccc(O)cc3Oc3cc(O)ccc32)c2ccc(NC(=S)*)cc21
Columns and labels:
BSA [1] = target: T1, BSA (Bos taurus, UniProt P02769); test: Isothermal titration calorimetry, binding to BSA (negative control); settings: ITC
Excerpt: The physical properties of this peptide would be determined by an online tool (https://www.thermofisher.com) (Thermo Fisher Scientific). Structure of this peptide and the binding properties to PN would be predicted by PEP-FOLD3 [34] and pepATTRACT [35] tools from RPBS Web Portal (https://bioserv.rpbs.univ-paris-diderot.fr) using PN 3D-structure from RCSB PDB database (https://www.rcsb.org/structure/5YJG). […] The procedure followed the instructions for the machine. The results would be determined by the measurement of the exothermic energy after intermittent injection into the cell compartment and reported as the binding affinity constant (KD).

MDA-MB-231 cells = test: Drug sensitivity (MTS), MDA-MB-231; type: cell-based; settings: Homo sapiens, MDA-MB-231, 48 h, MTS
Protocol: (§1) Determination the IC50 of BCA cells in response to chemotherapeutic drugs was analyzed by MTS assay. The experiment started from 5 × 10^3 of BCA cells in 100 μl medium that were seeded in 96-well plates for 24 h, then media was changed with different concentrations of new chemotherapeutic drugs [doxorubicin (S1208), paclitaxel (S1150), cisplatin (S1166), 5-fluorouracil (5-FU) (S1209) and gemcitabine (S1714) that were purchased from Selleck Chemicals, Houston, TX, USA] with or without rPN and anti-PN peptide for a further 48 h. After that, cell viability was determined by the MTS assay. Combination index (CI) was calculated by IC50 of combination of drug and PN or anti-PN peptide divided by IC50 of chemotherapeutic drug alone.
(§2) ANOVA test or Student’s t-test were applied for statistical analysis of the experiments. GraphPad Prism® version 7.04 software (GraphPad Software, San Diego, CA, USA) was used in calculation of IC50 values of chemotherapeutic drugs and PASW Statistics software version 18 (SPSS, IBM, Armonk, NY, USA) was used for other analysis. Dose-responses were compared by Holm-Sidak’s multiple comparison test. Mann-Whitney ranked-sum test was used for comparisons between normal and patient serum PN. Chi-square or Fisher’s exact test were used to determine the correlation between PN expression and clinical data in BCA patients. Kaplan-Meier Log-rank test using Kaplan-Meier Plotter online tool (https://kmplot.com/) was performed to determine the correlation between PN expression and survival time of BCA patients by online database. P-values of < 0.05 were used as statistical significance.

MCF-7 cells = test: Drug sensitivity (MTS), MCF-7; type: cell-based; settings: Homo sapiens, MCF7, 48 h, MTS
Protocol: as §1, §2

[2] = test system: non-denaturing cell lysate of PN-transfected BCA cells (MDA-MB-231 and MCF-7); test: Dot blot, FITC-peptide binding to non-denaturing cell lysate of PN-transfected BCA cells; settings: 12.5 μg cell lysate, 4 °C overnight, fluorescence, vs mock
Excerpt: (§3) After selecting the best binding sequence of 12-amino acids peptides, 2 types of peptide would be synthesized, plain peptide and peptide conjugated with fluorescein isothiocyanate (FITC). For the synthesis of the latter, a spacer region ([…]) would be added at the C-terminal end of the peptide and FITC was conjugated with the side chain of lysine. Finally, C-terminal amidation would be performed. The synthesis of plain and FITC-labelled anti PN peptides was ordered from Syn Peptide company (Shanghai, China). FITC-labelled anti-PN peptide tested binding affinity to non-denaturing cell lysate of transfected BCA cells and their mock transfected cells and rPN by dot blot analysis. Briefly, 12.5 μg of cell lysate or 500 ng of rPN in 1 μl was applied onto nitrocellulose membrane. The membrane was blocked with 5% BSA followed by peptide incubation at 4 °C overnight and the fluorescent signal was detected the next day using the G:BOX gel documentation system. The checking of anti-PN peptide binding to intact PN-transfected BCA cells was also performed with similar process as immunocytochemistry plus a step of cell membrane permeabilizing after fixation by incubated with 1% Triton X for 1 min at RT. […] The observation was viewed under confocal microscope using laser diode 488 nm.

rPN = test: Dot blot, FITC-peptide binding to rPN; settings: 500 ng rPN, 4 °C overnight, fluorescence
Excerpt: as §3

BSA [3] = target: T1, BSA; test: Dot blot, FITC-peptide binding to BSA; settings: BSA negative control, fluorescence
Excerpt: as §3

PN-transfected BCA cells = test: Immunocytochemistry, FITC-peptide binding to permeabilized PN-transfected BCA cells; type: cell-based; settings: 2 μM FITC-peptide, 1 h at RT, 1% Triton X permeabilized, confocal microscope; PN-transfected vs mock
Excerpt: as §3

T1 sequence (P02769 25-607): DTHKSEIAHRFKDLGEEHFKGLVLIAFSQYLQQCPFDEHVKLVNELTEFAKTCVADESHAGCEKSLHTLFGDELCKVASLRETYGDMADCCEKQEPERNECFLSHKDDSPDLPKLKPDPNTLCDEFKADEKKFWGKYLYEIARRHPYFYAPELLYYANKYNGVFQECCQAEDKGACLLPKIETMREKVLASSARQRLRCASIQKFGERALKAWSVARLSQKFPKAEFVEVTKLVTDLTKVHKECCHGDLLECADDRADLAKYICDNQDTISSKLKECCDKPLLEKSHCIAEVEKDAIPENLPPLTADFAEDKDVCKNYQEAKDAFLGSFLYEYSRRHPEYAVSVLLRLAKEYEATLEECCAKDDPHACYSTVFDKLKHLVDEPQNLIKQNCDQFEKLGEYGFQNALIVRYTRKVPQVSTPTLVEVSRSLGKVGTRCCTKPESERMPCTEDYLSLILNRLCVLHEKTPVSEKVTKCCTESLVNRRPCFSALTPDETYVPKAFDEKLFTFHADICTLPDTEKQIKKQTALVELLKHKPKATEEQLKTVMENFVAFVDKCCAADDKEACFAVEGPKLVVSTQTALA

TFATHGKHWAAP [anti-PN peptide]
Binding affinity to BSA (BSA [1]): could not be determined in BSA

COc1cccc2c1C(=O)c1c(O)c3c(c(O)c1C2=O)C[C@@](O)(C(=O)CO)C[C@@H]3O[C@H]1C[C@H](N)[C@H](O)[C@H](C)O1 [doxorubicin]
IC50 (MDA-MB-231 cells; doxorubicin with anti-PN peptide, PN-transfected MDA-MB-231, 48 h, P-value = 0.002): 797 nM
IC50 (MDA-MB-231 cells; doxorubicin with anti-PN peptide, mock transfected MDA-MB-231, 48 h, P-value = 0.932): 706 nM
IC50 (MDA-MB-231 cells; doxorubicin, PN-transfected MDA-MB-231, 48 h, P-value < 0.001 vs mock): 1090 nM
IC50 (MDA-MB-231 cells; doxorubicin, anti-PN peptide treated MDA-MB-231 without rPN, 48 h, P-value = 0.870): 896 nM
IC50 (MDA-MB-231 cells; doxorubicin, mock transfected MDA-MB-231, 48 h): 710 nM
IC50 (MDA-MB-231 cells; doxorubicin, rPN + anti-PN peptide treated MDA-MB-231, 48 h, P-value = 0.038): 1300 nM
IC50 (MDA-MB-231 cells; doxorubicin, rPN-treated MDA-MB-231, 48 h, P-value = 0.024): 1990 nM
IC50 (MDA-MB-231 cells; doxorubicin, untreated control MDA-MB-231 (rPN treatment experiment), 48 h): 845 nM
IC50 (MCF-7 cells; doxorubicin with anti-PN peptide, PN-transfected MCF-7, 48 h, P-value = 0.007): 970 nM
IC50 (MCF-7 cells; doxorubicin, PN-transfected MCF-7, 48 h, P-value = 0.013 vs mock): 1440 nM
IC50 (MCF-7 cells; doxorubicin, anti-PN peptide treated MCF-7 without rPN, 48 h, P-value = 0.558): 1040 nM
IC50 (MCF-7 cells; doxorubicin, mock transfected MCF-7, 48 h): 1070 nM
IC50 (MCF-7 cells; doxorubicin, rPN + anti-PN peptide treated MCF-7, 48 h, P-value = 0.038): 1270 nM
IC50 (MCF-7 cells; doxorubicin, rPN-treated MCF-7, 48 h, P-value = 0.007): 1460 nM
IC50 (MCF-7 cells; doxorubicin, untreated control MCF-7 (rPN treatment experiment), 48 h): 1050 nM

FITC-labelled anti-PN peptide (TFATHGKHWAAPGGGSCK(FITC)-NH2; N-terminus assumed; SMILES C[C@H](NC(=O)[C@H](Cc1c[nH]c2ccccc12)NC(=O)[C@H](Cc1c[nH]cn1)NC(=O)[C@H](CCCCN)NC(=O)CNC(=O)[C@H](Cc1c[nH]cn1)NC(=O)[C@@H](NC(=O)[C@H](C)NC(=O)[C@H](Cc1ccccc1)NC(=O)[C@@H](N)[C@@H](C)O)[C@@H](C)O)C(=O)N[C@@H](C)C(=O)N1CCC[C@H]1C(=O)NCC(=O)NCC(=O)NCC(=O)N[C@@H](CO)C(=O)N[C@@H](CS)C(=O)N[C@@H](CCCCNC(=S)Nc1ccc2c(c1)C(=O)OC21c2ccc(O)cc2Oc2cc(O)ccc21)C(N)=O)
Peptide binding to PN-transfected cell lysate [2]: higher in both PN-transfected BCA cells compared with their mock control cells
Peptide binding to rPN (rPN): markedly increased in rPN
Peptide binding to BSA (BSA [3]): no signal in BSA
Peptide binding in permeabilized cells (PN-transfected BCA cells): confirmed by immunocytochemistry staining in permeabilized cells
